# Experimental data: patent publication US20190298735A1, “TREATMENT AND PREVENTION OF CLOSTRIDIUM DIFFICILE COLITIS USING MISOPROSTOL” (Vanderbilt University, priority 2016, published 2019)
# Entries after “also recorded” stand apart in the source; their conditions may differ.
# Assays:
# [1] = test system: PGE2 EP receptors; conditions: cited from earlier work
# [2] = test system: NAP1/BI/027 strain M7404; assay: Misoprostol in acute CDI mouse model (survival, FITC-dextran intestinal permeability, diarrhea); format: in vivo, mice; conditions: for CDI severity: mice, M7404 spores, daily misoprostol IP vs vehicle
# [3] = test system: strain M7404; assay: Misoprostol in indomethacin-exposed CDI mice; format: in vivo, Female C57BL/6 mice
# [4] = test system: C. difficile strain 630; assay: Colonization levels of C. difficile in the cecum of infected mice; format: in vivo; conditions: strain 630, 96 hr post infection, misoprostol vs vehicle
# Procedure: FIG. 5. […] (A) Mice were infected by gavage with 10^6 spores of the NAP1/BI/027 strain […] and treated daily with the PGE analogue misoprostol (or vehicle) by intraperitoneal (IP) injection. n=5 per group. (B) To assess intestinal permeability mice were infected with […] of […] and given misoprostol 20 μg/mouse by IP injection 30 min before infection, 24 hr post-infection and at the time of FITC-dextran treatment. 2 d post infection mice were gavaged with FITC-dextran or vehicle control, then euthanized 4 hr later and concentrations of FITC-dextran in plasma were determined (*P<0.05). (C) Colonization levels of C. difficile strain 630 in the cecum for infected mice exposed to misoprostol or vehicle 96 hr post infection (*P<0.05).
# [5] = human; cited from earlier work
# [6] = test system: esophageal ulcer; conditions: rats, cited from earlier work
# [7] = test system: human esophageal epithelial (HET-1A) cells; conditions: cited from earlier work
# [8] = target: T1, prostaglandin E2 receptor 4 (EP4) receptor (Mus musculus, UniProt P32240); conditions: another mouse model, oral administration; cited from earlier work
# T1 construct: endogenous in cells; host or cells: mouse, in vivo (colon tissue); result quoted from Watanabe et al. 2015
# [9] = target: T1, prostaglandin E2 receptor 4 (EP4) receptor; conditions: oral administration, mouse model; cited from earlier work
# [10] = mice; cited from earlier work
# [11] = test system: NAP1 C. difficile strain M7404; format: in vivo, C57BL/6 mice; conditions: mice, NSAID given before or after infection, clinical NAP1/027 isolate; indomethacin 10 mg/kg gavage, ibuprofen 5 mg/kg in drinking water
# [12] = test system: C. difficile; assay: Tissue PGE2 (ELISA) and histological colitis score in C. difficile infected mice treated with indomethacin; format: in vivo; conditions: for tissue damage and acute inflammation (colitis): blinded histological score: edema, neutrophilic inflammation, epithelial damage; for tissue PGE2 levels: indomethacin gavage once daily until day +4, ELISA
# Procedure: FIG. 3. […] (A) Mice were infected with C. difficile and treated with indomethacin by gavage once daily starting on the day of infection until mice were euthanized on day +4. Tissue PGE2 concentrations were measured by ELISA. n=5 mice per group. (B) Histological assessment of colitis was performed in a blinded fashion. The score incorporates edema, neutrophilic inflammation, and epithelial damage. (C and D) Tissue cytokine and chemokine concentrations were measured by ELISA. n=5 mice per group. *P<0.05.
# [13] = test system: C. difficile; conditions: C. difficile-infected mice, cited from earlier work
# T1 sequence (P32240 whole entry): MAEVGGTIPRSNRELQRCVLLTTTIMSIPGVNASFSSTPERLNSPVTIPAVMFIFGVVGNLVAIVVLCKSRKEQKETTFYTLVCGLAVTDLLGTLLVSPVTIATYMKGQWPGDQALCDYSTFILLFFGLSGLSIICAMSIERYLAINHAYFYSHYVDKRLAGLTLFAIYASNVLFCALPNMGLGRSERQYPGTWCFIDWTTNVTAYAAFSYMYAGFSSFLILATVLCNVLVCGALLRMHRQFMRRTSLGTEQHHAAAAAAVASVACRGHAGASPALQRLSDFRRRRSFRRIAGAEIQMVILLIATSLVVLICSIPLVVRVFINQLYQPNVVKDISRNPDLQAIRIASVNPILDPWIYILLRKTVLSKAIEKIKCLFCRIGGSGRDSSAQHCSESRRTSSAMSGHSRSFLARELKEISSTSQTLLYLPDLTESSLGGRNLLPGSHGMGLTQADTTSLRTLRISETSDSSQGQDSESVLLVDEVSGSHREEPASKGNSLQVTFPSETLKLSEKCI
smiles,measurement,setting,value
"CCCC[C@](C)(O)C/C=C/[C@H]1[C@H](O)CC(=O)[C@@H]1CCCCCCC(=O)OC (racemic) [misoprostol, (11a, 13E)-(±)-11,16-dihydroxy-16-methyl-9-oxoprost-13-en-1-oic acid methyl ester]",binding to PGE2 EP receptors,[1],binds all 4 of the PGE2 EP receptors
same,diarrhea,"[2]; infected mice, misoprostol vs vehicle/placebo",reduced diarrhea; also recorded: fared significantly better
same,CDI severity,[2],reduced CDI severity
same,CDI severity,[2]; listed as Misoprostol,reduces CDI severity
same,death / survival,"[2]; mouse, in vivo, ip",prevented death; also recorded: fared significantly better
same,CDI in indomethacin-exposed mice,"[3]; INDO 10 mg/kg days −2 and −1, 1×10^4 spores M7404, 20 mg misoprostol i.p. daily",improves CDI
same,"survival, Log-rank (Mantel-Cox) test","[3]; mouse, in vivo, ip",not statistically significant
same,C. difficile colonization levels,[4],reduced C. difficile colonization levels
same,protection of colonic mucosa against mucosal insults,[5],potently protects human colonic mucosa
same,"CREB phosphorylation, VEGF expression and angiogenesis",[6]; esophageal ulcer,"enhanced phosphorylation of CREB, stimulated VEGF expression and angiogenesis"
same,esophageal ulcer healing,[6],accelerated esophageal ulcer healing
same,VEGF expression,[7],stimulated VEGF expression
same,increase of intracellular cAMP levels,[7],163 fold
same,phosphorylation of CREB,[7],induced phosphorylation of CREB
Cc1cccc([C@@H](C)[C@H](O)/C=C/[C@@H]2[C@@H]3[C@H](C[C@H]2O)O/C(=C\CCCc2nn[nH]n2)C3(F)F)c1 [KAG-308],colorectal carcinogenesis,[8],prevented colorectal carcinogenesis
same,onset of dextran sulfate sodium-induced colitis and mucosal healing,[9],suppressed onset of dextran sulfate sodium-induced colitis and promoted mucosal healing
"CCCCC[C@H](O)/C=C/[C@H]1[C@H](O)CC(=O)[C@@H]1C/C=C\CCCC(=O)O [PGE2, Prostaglandin E2]",colitis induced by DSS,[10],significantly improved colitis
Nc1ncnc2c1ncn2[C@@H]1O[C@@H]2COP(O)(=S)O[C@H]2[C@H]1O (some centres unmarked) [Rp-cAMP],"action on the effects of misoprostol (cAMP, CREB phosphorylation, VEGF expression)",[7],blocked
Nc1ncnc2c1ncn2[C@@H]1O[C@@H]2COP(O)(=S)O[C@H]2[C@H]1O (some centres unmarked) [Sp-cAMP],"action on the effects of misoprostol (cAMP, CREB phosphorylation, VEGF expression)",[7],mimicked
COc1ccc2c(c1)c(CC(=O)O)c(C)n2C(=O)c1ccc(Cl)cc1 [indomethacin],mortality in CDI,[11],higher mortality
same,tissue damage and acute inflammation (colitis),[12],induced more tissue damage and acute inflammation
same,tissue damage and acute inflammation (colitis),[12]; listed as Indomethacin,worsens colitis
same,tissue PGE2 levels,[12],suppressed tissue PGE2 levels
same,tissue PGE2 levels,[12]; listed as Indomethacin,inhibits PGE2 production
CN[C@H](CC(C)C)C(=O)N[C@H]1C(=O)N[C@@H](CC(N)=O)C(=O)N[C@H]2C(=O)N[C@H]3C(=O)N[C@H](C(=O)N[C@H](C(=O)O)c4cc(O)cc(O)c4-c4cc3ccc4O)[C@H](O)c3ccc(c(Cl)c3)Oc3cc2cc(c3O[C@@H]2O[C@H](CO)[C@@H](O)[C@H](O)[C@H]2O[C@H]2C[C@](C)(N)[C@H](O)[C@H](C)O2)Oc2ccc(cc2Cl)[C@H]1O [vancomycin],relapse of colitis after treatment,[13]; with increased colonization levels and toxin production,gradual return of colitis by day 16
same,resolution of colitis,[13],accelerates resolution of colitis
